Test results as given in US20200375975A1, “Treatment of Renal Cell Carcinoma with Lenvatinib and Everolimus” (Eisai R&D Management Co., Ltd., priority 2016, published 2020).

How the values were obtained:
[1] = tested on: patients with unresectable advanced or metastatic renal cell carcinoma (RCC); experiment: Same Phase 2 trial: PFS and ORR by retrospective independent blinded review of scans; type: in vivo, human; settings: combo 18 mg+5 mg; everolimus 10 mg
[2] = tested on: patients with unresectable advanced or metastatic renal cell carcinoma (RCC); experiment: Same Phase 2 trial: adverse reactions (CTCAE grades), once daily dosing;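 note: adverse events are any unwanted sign, symptom, abnormal lab finding or disease occurring in time with treatment, whether or not drug-related, and CTCAE grade expresses their severity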
Description: The CTCAE provides a grading (severity) scale for each adverse event term. […] The CTCAE grade refers to the severity of the AE.
The safety data described below are derived from the trial described in Example 1, which randomized (1:1:1) patients with unresectable advanced or metastatic renal cell carcinoma (RCC) to LENVIMA® 18 mg+everolimus 5 mg (n=51), LENVIMA® 24 mg (n=52), or everolimus 10 mg (n=50) once daily.

[3] = tested on: patients with unresectable advanced or metastatic renal cell carcinoma (RCC); experiment: Phase 2 trial in RCC after one prior VEGF-targeted treatment: efficacy (PFS, OS, ORR), investigator assessment, RECIST 1.1; LENVIMA 18 mg+everolimus 5 mg vs LENVIMA 24 mg vs everolimus 10 mg; settings: combo 18 mg+5 mg
Description: A multicenter, randomized, open-label, trial was conducted to determine the safety and efficacy of lenvatinib administered alone or in combination with everolimus in subjects with unresectable advanced or metastatic renal cell carcinoma (RCC). The trial consisted of a Phase 1b dose finding and a Phase 2 portion. The Phase 2 portion enrolled a total of 153 patients with unresectable advanced or metastatic RCC following one prior VEGF-targeted treatment. Patients were required, inter alia, to have histological confirmation of predominant clear cell RCC, radiographic evidence of disease progression according to Response Evaluation Criteria in Solid Tumors Version 1.1 (RECIST), one prior VEGF-targeted therapy, and Eastern Cooperative Oncology Group (ECOG) Performance Status of 0 or 1.
Patients were randomly allocated to one of 3 arms: (i) LENVIMA® (mesylate salt of lenvatinib) 18 mg+everolimus 5 mg, (ii) LENVIMA® 24 mg, or (iii) everolimus 10 mg, using a 1:1:1 ratio. Patients were stratified by hemoglobin level (≤13 g/dL vs. >13 g/dL for males and ≤11.5 g/dL vs >11.5 g/dL for females) and corrected serum calcium (≥10 mg/dL vs. <10 mg/dL).
The primary efficacy outcome measure, based on investigator assessed tumor response, was progression-free survival (PFS) of the LENVIMA® plus everolimus arm vs. the everolimus arm and of the LENVIMA® arm vs. the everolimus arm. Other efficacy outcome measures included investigator-assessed overall survival (OS) and objective response rate (ORR).
Tumor assessments were evaluated according to RECIST.

[4] = tested on: patients with unresectable advanced or metastatic renal cell carcinoma (RCC); experiment: Same Phase 2 trial: laboratory abnormalities, Grade 3-4; type: in vivo, human; settings: combo (head prints 10 mg+5 mg), LENVIMA 24 mg, everolimus 10 mg
Description: Table 4 provides a summary of laboratory abnormalities observed in the patients in the RCC trial described in Example 1.

[5] = cited from earlier work
[6] = tested on: rabbits; settings: rabbit, in vivo, po; cited from earlier work
[7] = tested on: rats; settings: rat, in vivo, po; cited from earlier work
[8] = LENVIMA 24 mg, everolimus 10 mg
[9] = combo 18 mg+5 mg, LENVIMA 24 mg, everolimus 10 mg
[10] = everolimus 10 mg, cutoff Jul. 31, 2015
[11] = everolimus 10 mg, cutoff Jun. 13, 2014
[12] = combo 18 mg+5 mg, LENVIMA 24 mg

CO[C@H]1C[C@@H]2CC[C@@H](C)[C@@](O)(O2)C(=O)C(=O)N2CCCC[C@H]2C(=O)O[C@H]([C@H](C)C[C@@H]2CC[C@@H](OCCO)[C@H](OC)C2)CC(=O)[C@H](C)/C=C(\C)[C@@H](O)[C@@H](OC)C(=O)[C@H](C)C[C@H](C)/C=C/C=C/C=C/1C [Everolimus, (1R,9S,12S,15R,16E,18R,19R,21R,23 S,24E,26E,28E,30S,32S,35R)-1,18-dihydroxy-12-{(1R)-2-[(1 S,3R,4R)-4-(2-hydroxyethoxy)-3-methoxycyclohexyl]-1-methylethyl}-19,30-dimethoxy-15,17,21,23,29,35-hexamethyl-11,36-dioxa-4-aza-tricyclo[30.3.1.0^4,9]hexatriaconta-16,24,26,28-tetraene-2,3,10,14,20-pentaone]
ORR, independent blinded review [1]: no subject had an objective response
arterial thromboembolic events, Grade 3 or greater [2, 8]: 4%
Adverse reactions led to dose reductions or interruption, patients [2, 9]: 54%
Arthralgia/myalgia, All Grades [2, 9]: 32%
Arthralgia/myalgia, Grades 3-4 [2, 9]: 0%
Confusional state, All Grades [2, 9]: 0%
Confusional state, Grades 3-4 [2, 9]: 0%
Constipation, All Grades [2, 9]: 18%
Constipation, Grades 3-4 [2, 9]: 0%
Cough, All Grades [2, 9]: 30%
Cough, Grades 3-4 [2, 9]: 0%
Decreased appetite, All Grades [2, 9]: 18%
Decreased appetite, Grades 3-4 [2, 9]: 0%
Decreased weight, All Grades [2, 9]: 8%
Decreased weight, Grades 3-4 [2, 9]: 0%
Dehydration, All Grades [2, 9]: 2%
Dehydration, Grades 3-4 [2, 9]: 0%
Diarrhea, All Grades [2, 9]: 34%
Diarrhea, Grades 3-4 [2, 9]: 2%
Discontinuation of treatment due to hemorrhagic events, patients [2, 9]: no discontinuations
Dyspepsia, All Grades [2, 9]: 12%
Dyspepsia, Grades 3-4 [2, 9]: 0%
Dysphonia, All Grades [2, 9]: 4%
Dysphonia, Grades 3-4 [2, 9]: 0%
Dyspnea, All Grades [2, 9]: 28%
Dyspnea, Grades 3-4 [2, 9]: 8%
Epistaxis, All Grades [2, 9]: 24%
Epistaxis, Grades 3-4 [2, 9]: 0%
Events of renal impairment [2, 9]: 12%
Fatigue, All Grades [2, 9]: 38%
Gastrointestinal disorders and Abdominal pain, All Grades [2, 9]: 8%
Gastrointestinal disorders and Abdominal pain, Grades 3-4 [2, 9]: 0%
Grade 3 or greater diarrhea, patients [2, 9]: 2%
Grade 3 or greater renal failure or impairment, incidence [2, 9]: 2%
Headache, Grades 3-4 [2, 9]: 2%
Hypertension, All Grades [2, 9]: 10%
Hypertension, Grades 3-4 [2, 9]: 2%
Insomnia, All Grades [2, 9]: 2%
Insomnia, Grades 3-4 [2, 9]: 0%
Musculoskeletal chest pain, All Grades [2, 9]: 4%
Musculoskeletal chest pain, Grades 3-4 [2, 9]: 0%
Nausea, All Grades [2, 9]: 16%
Nausea, Grades 3-4 [2, 9]: 0%
Oral inflammation, All Grades [2, 9]: 50%
Oral inflammation, Grades 3-4 [2, 9]: 4%
Oral pain, All Grades [2, 9]: 4%
Oral pain, Grades 3-4 [2, 9]: 0%
Proteinuria, All Grades [2, 9]: 14%
Proteinuria, Grades 3-4 (text: Grade 3 or greater) [2, 9]: 2%
Pruritus, All Grades [2, 9]: 14%
Pruritus, Grades 3-4 [2, 9]: 0%
Pyrexia, All Grades [2, 9]: 10%
QT/QTc interval prolongation, patients [2, 9]: No reports
Rash, All Grades [2, 9]: 30%
Rash, Grades 3-4 [2, 9]: 0%
Renal failure events, All Grades [2, 9]: 2%
Renal failure events, Grades 3-4 [2, 9]: 2%
Vomiting, Grades 3-4 [2, 9]: 0%
arterial thromboembolic events, patients [2, 9]: 6%
decreased ejection fraction and cardiac failure, Grade 3 [2, 9]: 2%
decreased ejection fraction and cardiac failure, patients [2, 9]: 4%
epistaxis, Grade 1 [2, 9]: 20%
gastrointestinal perforation or fistula, patients [2, 9]: no patients
hemorrhagic events, Grade 3 or greater [2, 9]: 2%
hemorrhagic events, patients [2, 9]: 28%
hypothyroidism, patients [2, 9]: 2%
patients discontinued treatment for adverse reactions [2, 9]: 6 (12%) n (%)
elevation of TSH level post baseline in patients with a normal TSH at baseline ([2]; combo 18 mg+5 mg, everolimus 10 mg): none
epistaxis, Grade 2 ([2]; everolimus 10 mg): 4%
Number of complete responses (%) ([3]; everolimus 10 mg): 0 n (%)
Number of partial responses (%) ([3]; everolimus 10 mg): 3 (6) n (%)
Number of progressive disease (%) ([3]; everolimus 10 mg): 12 (24) n (%)
Number of stable disease (%) ([3]; everolimus 10 mg): 31 (62) n (%)
Overall Survival (updated analysis): Number of deaths, n (%) [3, 10]: 37 (74) n (%)
Overall Survival: Number of deaths (%) [3, 11]: 26 (52) n (%)
Alkaline phosphatase increased, Grades 3-4 [4]: 0%
Aspartate aminotransferase (AST) increased, Grades 3-4 [4]: 0%
Hemoglobin decreased, Grades 3-4 [4]: 16%
Hyperglycemia, Grades 3-4 [4]: 16%
Hyperkalemia, Grades 3-4 [4]: 2%
Hypocalcemia, Grades 3-4 [4]: 2%
Hypokalemia, Grades 3-4 [4]: 2%
Hyponatremia, Grades 3-4 [4]: 6%
Hypophosphatemia, Grades 3-4 [4]: 6%
Lipase increased, Grades 3-4 [4]: 12%
Lymphocyte count decreased, Grades 3-4 [4]: 20%
Platelet count decreased, Grades 3-4 [4]: 0%
Aspartate aminotransferase (AST) increased, Grades 3-4 ([4]; listed as everolimus): no patients

COc1cc2nccc(Oc3ccc(NC(=O)NC4CC4)c(Cl)c3)c2cc1C(N)=O [LENVIMA ®, 4-[3-chloro-4-(N′-cyclopropylureido)phenoxy]-7-methoxyquinoline-6-carboxamide methanesulfonate]
arterial thromboembolic events, Grade 3 or greater [2, 8]: 8%
QT/QTc interval prolongation, Grade 3 or greater events [2, 12]: No Grade 3 or greater events
fatal hemorrhage cases [2, 12]: one case of fatal intracranial hemorrhage
Arthralgia/myalgia, All Grades [2, 9]: 56%
Arthralgia/myalgia, Grades 3-4 [2, 9]: 4%
Confusional state, All Grades [2, 9]: 4%
Confusional state, Grades 3-4 [2, 9]: 2%
Cough, All Grades [2, 9]: 17%
Cough, Grades 3-4 [2, 9]: 2%
Decreased appetite, All Grades [2, 9]: 58%
Decreased appetite, Grades 3-4 [2, 9]: 4%
Decreased weight, All Grades [2, 9]: 50%
Decreased weight, Grades 3-4 [2, 9]: 6%
Dehydration, All Grades [2, 9]: 2%
Dehydration, Grades 3-4 [2, 9]: 0%
Dysphonia, All Grades [2, 9]: 37%
Dysphonia, Grades 3-4 [2, 9]: 0%
Dyspnea, All Grades [2, 9]: 25%
Dyspnea, Grades 3-4 [2, 9]: 2%
Epistaxis, All Grades [2, 9]: 8%
Epistaxis, Grades 3-4 [2, 9]: 0%
Fatigue, All Grades [2, 9]: 52%
Headache, Grades 3-4 [2, 9]: 6%
Insomnia, All Grades [2, 9]: 15%
Insomnia, Grades 3-4 [2, 9]: 0%
Musculoskeletal chest pain, All Grades [2, 9]: 15%
Musculoskeletal chest pain, Grades 3-4 [2, 9]: 4%
Pruritus, All Grades [2, 9]: 6%
Pruritus, Grades 3-4 [2, 9]: 0%
Pyrexia, All Grades [2, 9]: 10%
QT/QTc interval prolongation, patients [2, 9]: 6%
Rash, All Grades [2, 9]: 15%
Rash, Grades 3-4 [2, 9]: 0%
Renal failure events, All Grades [2, 9]: 10%
Renal failure events, Grades 3-4 [2, 9]: 6%
Vomiting, Grades 3-4 [2, 9]: 4%
Duration of response, months, median (95% CI) ([3]; everolimus 10 mg): 7.5 (3.8, NE) months
Number of complete responses (%) ([3]; everolimus 10 mg): 0 n (%)
Number of partial responses (%) ([3]; everolimus 10 mg): 14 (27) n (%)
Number of progressive disease (%) ([3]; everolimus 10 mg): 3 (6) n (%)
Number of stable disease (%) ([3]; everolimus 10 mg): 27 (52) n (%)
Median OS in months (95% CI), updated analysis [3, 10]: 19.1 (13.6, 26.2) months
Overall Survival (updated analysis): Number of deaths, n (%) [3, 10]: 34 (65) n (%)
Median OS in months (95% CI) [3, 11]: 18.4 (13.3, NE) months
Median PFS in months (95% CI) [3, 11]: 7.4 (5.6, 10.2) months
Overall Survival: Number of deaths (%) [3, 11]: 26 (50) n (%)
PFS compared with the everolimus arm (in words) ([3]; vs everolimus 10 mg): improvement
solubility in ethanol (dehydrated) ([5]; ethanol (dehydrated)): practically insoluble
solubility in water ([5]; water): slightly soluble
Alkaline phosphatase increased, Grades 3-4 [4]: 0%
Aspartate aminotransferase (AST) increased, Grades 3-4 [4]: 4%
Hemoglobin decreased, Grades 3-4 [4]: 4%
Hyperglycemia, Grades 3-4 [4]: 8%
Hyperkalemia, Grades 3-4 [4]: 2%
Hypokalemia, Grades 3-4 [4]: 8%
Hyponatremia, Grades 3-4 [4]: 6%
Hypophosphatemia, Grades 3-4 [4]: 4%
Lipase increased, Grades 3-4 [4]: 10%
Lymphocyte count decreased, Grades 3-4 [4]: 4%
Platelet count decreased, Grades 3-4 [4]: 2%
Hypocalcemia, Grades 3-4 ([4]; listed as LENVIMA®, methanesulfonate): no patients

COc1cc2nccc(Oc3ccc(NC(=O)NC4CC4)c(Cl)c3)c2cc1C(N)=O [lenvatinib, 4-(3-chloro-4(cyclopropylaminocarbonyl)aminophenoxy)-7-methoxy-6-quinolinecarboxamide]
embryofetal toxicity findings [6]: embryotoxicity, fetotoxicity, and teratogenicity
embryofetal toxicity findings [7]: embryotoxicity, fetotoxicity, and teratogenicity
